Experimental data taken from US8178077B2, “Drug development target protein and target gene, and method of screening” (Reverse Proteomics Research Institute Co., Ltd., priority 2004, dated 2012).
Where a name gives a salt, the structure may show the parent alone.

Target: T1, FLJ39196 clone-derived protein (human neurocalcin δ) (Homo sapiens, UniProt P61601)
T1 construct: A human full-length cDNA clone was expressed as a protein with an N-terminal His tag; His tag (N); made in house; host or cells: Escherichia coli BL21star(DE3)pLysS (pDEST17 Gateway expression plasmid)
Experiment: SEC/MS interaction analysis (size exclusion spin column and mass analysis) with FLJ39196 clone-derived protein
Type: binding
Description: To analyze the interactions between commonly used drugs and proteins expressed from human full-length cDNA clones while keeping both the proteins and the compounds in non-modified, non-immobilized state, size exclusion chromatography (SEC) and mass analysis were used in combination (FIGS. 1, 2). The specific procedures are shown below.
The compound-protein mixture prepared in step 1 was subjected to chromatography using an SEC column, the compound and the protein were separated by SEC, and the compound that interacted with the bound compound or protein contained in the protein fraction was analyzed using a mass analyzer.
Protein concentrations were measured using BCA Protein Assay (PIERCE), in consideration of the purity calculated by SDS-PAGE.
Mass analysis was performed using LCQ DECA XP (Thermoelectron) or Q-TOFmicro (Micromass), equipped with an ESI probe. The LC pump used was Agilent 1100 (Yokogawa Analytical Systems), and the autosampler used was HTC-PAL (CTC Analytics) equipped with a cooling stacker.
In the SEC method using 384-well spin columns, Unifilter 100 (Whatman), packed with 10 μL (dry volume) of Bio-Gel P6 (BIO-RAD) and swollen with milliQ water, was used as the SEC column. 13.3 μL of a protein-free reference standard or a 25 μM protein standard and 0.7 μL of a multiplied liquid comprising 25 μM of each pharmaceutical compound (5% DMSO aqueous solution) were mixed; 9 μL of this mixture was aliquoted into the SEC spin columns. The SEC spin column was mounted on an acetonitrile-aliquoted 384-well U-bottom plate and centrifuged; the SEC spin column filtrate, which is a protein fraction, was retrieved in 50% acetonitrile. The protein precipitate produced by the acetonitrile was removed via centrifugation and filtration for deproteinization; the resulting filtrate was concentrated by centrifugation and re-dissolved in 10 μL of 50% methanol to obtain a mass analysis sample. The mobile phase supplied to the mass analyzer was 0.1% formic acid/50% methanol solution in the positive ion mode, and 0.1% ammonia/50% methanol solution in the negative ion mode; these mobile phases were used at a flow rate of 40 μL/min. 2-μL of mass analysis samples were injected using an autosampler at 2-minute intervals; the mass spectral intensity of the compound was measured to obtain the spectral intensity of the pharmaceutical compound contained in the SEC spin column filtrate (protein fraction eluted from SEC).

[1] = protein 0 μM (protein-free reference), compound 1 μM
[2] = protein 0 μM (protein-free reference), compound 10 μM
[3] = protein 0 μM (protein-free reference), compound 100 μM
[4] = protein 0 μM (protein-free reference), compound 250 μM
[5] = protein 23.75 μM, compound 1 μM
[6] = protein 23.75 μM, compound 10 μM
[7] = protein 23.75 μM, compound 100 μM
[8] = protein 23.75 μM, compound 250 μM
[9] = protein 47.5 μM, compound 10 μM
[10] = protein 47.5 μM, compound 100 μM
[11] = protein 47.5 μM, compound 250 μM

| Structure (SMILES) | spectral intensity of the compound in the SEC spin column filtrate (protein fraction) [1] | spectral intensity of the compound in the SEC spin column filtrate (protein fraction) [2] | spectral intensity of the compound in the SEC spin column filtrate (protein fraction) [3] | spectral intensity of the compound in the SEC spin column filtrate (protein fraction) [4] | spectral intensity of the compound in the SEC spin column filtrate (protein fraction) [5] | spectral intensity of the compound in the SEC spin column filtrate (protein fraction) [6] | spectral intensity of the compound in the SEC spin column filtrate (protein fraction) [7] | spectral intensity of the compound in the SEC spin column filtrate (protein fraction) [8] | spectral intensity of the compound in the SEC spin column filtrate (protein fraction) (protein 47.5 μM, compound 1 μM) | spectral intensity of the compound in the SEC spin column filtrate (protein fraction) [9] | spectral intensity of the compound in the SEC spin column filtrate (protein fraction) [10] | spectral intensity of the compound in the SEC spin column filtrate (protein fraction) [11] |
| --- | --- | --- | --- | --- | --- | --- | --- | --- | --- | --- | --- | --- |
| CN1CCC(=C2c3ccccc3Sc3ccccc32)CC1 [Pimethixene] | 2913965 | 4868887 | 58800844 | 224525009 | 2449690 | 5737072 | 121577640 | 265475649 | 2762592 | 9271060 | 197624997 | 359356100 |
| O=C(c1ccc(OCCN2CCCCC2)cc1)c1c(-c2ccc(O)cc2)sc2cc(O)ccc12 [Raloxifene hydrochloride] | 3754698 | 2330594 | 7909682 | 10553153 | 3790373 | 6024709 | 124641622 | 157539770 | 3014448 | 17385466 | 122918120 | 666932700 |
| COC(=O)[C@H]1[C@H]2C[C@@H]3c4[nH]c5cc(OC)ccc5c4CCN3C[C@H]2C[C@@H](OC(=O)/C=C/c2cc(OC)c(OC)c(OC)c2)[C@@H]1OC [Rescinnamine] | 9843174 | 6544896 | 12903374 | 7315419 | 11269941 | 21895843 | 215933519 | 288844471 | 17653515 | 40677751 | 675671326 | 1469409087 |
| CCCCCCCCNC(C)C(O)c1ccc(SC(C)C)cc1 (stereo not drawn) [Suloctidil] | 6080126 | 3684060 | 4969067 | 9177432 | 4318261 | 7828150 | 163940015 | 357100809 | 5977944 | 7209043 | 507388292 | 742015343 |
| CCOC(=O)Oc1c(OC)cc(C(=O)O[C@@H]2C[C@@H]3CN4CCc5c([nH]c6cc(OC)ccc56)[C@H]4C[C@@H]3[C@H](C(=O)OC)[C@H]2OC)cc1OC [Syrosingopine] | 38126829 | 47209784 | 41362697 | 38512184 | 63594361 | 101347281 | 465474678 | 596250311 | 70443152 | 105524442 | 897067633 | 1499127775 |
| Clc1ccc(C(OCCN2CCCCC2)c2ccccc2)cc1 (stereo not drawn) [chloperastine] | 2920008 | 13165487 | 276180260 | 803023959 | 2972794 | 9288224 | 218420294 | 773924506 | 4085344 | 18612563 | 338617522 | 1411536255 |
| CC(C)/N=c1\cc2n(-c3ccc(Cl)cc3)c3ccccc3nc-2cc1Nc1ccc(Cl)cc1 [clofazimine] | 1592610 | 3306068 | 1781607 | 1742291 | 2041846 | 15886830 | 138678443 | 380425425 | 2399851 | 57730302 | 312686548 | 411373516 |
| CCc1cc2c(s1)N(C)C(=O)CN=C2c1ccccc1Cl [clotiazepam] | 8089543 | 19826757 | 251469420 | 633414607 | 8254340 | 25038949 | 283452799 | 759706893 | 9022620 | 60448900 | 657940514 | 1089985810 |
| C[C@]12Cc3c[nH]nc3C[C@@H]1CC[C@@H]1[C@@H]2CC[C@@]2(C)[C@H]1CC[C@]2(C)O [stanozolol] | 3108300 | 2749518 | 3830491 | 4150230 | 3620481 | 10223886 | 127989356 | 194560574 | 3989532 | 25533379 | 619287498 | 778914733 |
